Test results from the supplement of paper PMC10307832.

Columns and labels:
Experiment in all cases: relative viability (nuclei count vs DMSO), 5 days (fraction); higher = more cells survive
FG-4592 + Dasatinib = compound: Cc1nc(C(=O)NCC(=O)O)c(O)c2ccc(Oc3ccccc3)cc12 [FG-4592] + Cc1nc(Nc2ncc(C(=O)Nc3c(C)cccc3Cl)s2)cc(N2CCN(CCO)CC2)n1 [Dasatinib] (partner 0.075 µM)
Method in brief: (§1)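 Each reported value is a median over duplicate plates. It expresses relative viability: treated-well nuclei count divided by vehicle-well nuclei count. Lung cancer cell lines in 1536-well plates were dosed by pin tool a day after seeding, alone with one drug or with a fixed anchor-drug dose plus five library-drug doses (not always all listed) in √10 steps, and nuclei were counted after 5 days.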

IU1-47 + Navitoclax = compound: CC1=CC(=C(N1C2=CC=C(C=C2)Cl)C)C(=O)CN3CCCCC3 [IU1-47] + CC1(C)CCC(c2ccc(Cl)cc2)=C(CN2CCN(c3ccc(C(=O)NS(=O)(=O)c4ccc(N[C@H](CCN5CCOCC5)CSc5ccccc5)c(S(=O)(=O)C(F)(F)F)c4)cc3)CC2)C1 [Navitoclax] (partner 0.5 µM)
Method in brief: as §1

IU1-47 + Lapatinib = compound: CC1=CC(=C(N1C2=CC=C(C=C2)Cl)C)C(=O)CN3CCCCC3 [IU1-47] + CS(=O)(=O)CCNCc1ccc(-c2ccc3ncnc(Nc4ccc(OCc5cccc(F)c5)c(Cl)c4)c3c2)o1 [Lapatinib] (partner 2 µM)
Method in brief: as §1

FG-4592 + Luminespib = compound: Cc1nc(C(=O)NCC(=O)O)c(O)c2ccc(Oc3ccccc3)cc12 [FG-4592] + CCNC(=O)c1noc(-c2cc(C(C)C)c(O)cc2O)c1-c1ccc(CN2CCOCC2)cc1 [Luminespib] (partner 0.01 µM)
Method in brief: as §1

Cell Line	relative viability (FG-4592 + Dasatinib; first compound 0.08 µM)	relative viability (FG-4592 + Dasatinib; first compound 0.253 µM)	relative viability (FG-4592 + Dasatinib; first compound 0.8 µM)	relative viability (FG-4592 + Dasatinib; first compound 2.53 µM)	relative viability (FG-4592 + Dasatinib; first compound 8 µM)	relative viability (IU1-47 + Navitoclax; first compound 0.08 µM)	relative viability (IU1-47 + Navitoclax; first compound 0.253 µM)	relative viability (IU1-47 + Navitoclax; first compound 0.8 µM)	relative viability (IU1-47 + Navitoclax; first compound 2.53 µM)	relative viability (IU1-47 + Navitoclax; first compound 8 µM)	relative viability (IU1-47 + Lapatinib; first compound 0.08 µM)	relative viability (IU1-47 + Lapatinib; first compound 0.253 µM)	relative viability (IU1-47 + Lapatinib; first compound 0.8 µM)	relative viability (IU1-47 + Lapatinib; first compound 2.53 µM)	relative viability (IU1-47 + Lapatinib; first compound 8 µM)	relative viability (FG-4592 + Luminespib; first compound 0.08 µM)	relative viability (FG-4592 + Luminespib; first compound 0.253 µM)	relative viability (FG-4592 + Luminespib; first compound 0.8 µM)	relative viability (FG-4592 + Luminespib; first compound 2.53 µM)	relative viability (FG-4592 + Luminespib; first compound 8 µM)
NCI-H1975	0.416	0.313	0.351	0.277	0.366	1.25	1.14	1.38	1.18	0.888	0.844	0.879	0.934	0.883	0.846	0.305	0.244	0.2	0.187	0.0934
CAL-12T	0.378	0.424	0.406	0.361	0.365	1.29	1.32	1.24	1.24	1.38	0.683	0.765	0.744	0.591	0.763	0.212	0.458	0.129	0.375	0.689
NCI-H1623	0.505	0.555	0.446	0.486	0.468											0.466	0.547	0.409	0.492	0.415
HCC-44						1.14	1.01	1	0.908	0.956	0.985	1.03	1.07	1.05	0.825	1.05	1.01		0.934	1.05
EKVX	0.629	0.555	0.53	0.486	0.495	1.24	1.17	0.965	0.973	0.882	0.214	0.27	0.199	0.214	0.219	0.842	0.807	0.81	0.891	0.9
NCI-H1651	0.416	0.439	0.356	0.325	0.367	1.25	1.13	1.16		1.12	0.735	0.743	0.913		0.943	0.9	0.767	0.789	0.836	0.867
NCI-H1944	0.251	0.207	0.177	0.199	0.202	1.1	1.12	1.04		1.03	0.835	0.845	0.779		0.801	0.762	0.716	0.728	0.891	0.763
NCI-H1703						1.06	0.961	0.953	1.44	1.15	1.21	1.2	1.03	1.39	0.96					
Calu-6						1.07	1.01	0.827	0.867	0.802	1.14	1.23	1.11	1.18	0.94					
EBC-1						0.487	0.479	0.393	0.413	0.299	0.214	0.216	0.218	0.226	0.205					
